For 3 compounds, inhibition results are on record in article PMC9037111, “Structure-based design, synthesis, and biological evaluation of novel piperine–resveratrol hybrids as antiproliferative agents targeting SIRT-2” (RSC Advances, 2021).

Read-outs that look alike come from different tables or passages of the source.

What all share (experiment): sirtuin deacetylase inhibition assay, % inhibition at […] ([…] at […])
Holding throughout (type): biochemical

Experiment [1] deals with T1, SIRT1 (Homo sapiens, UniProt Q96EB6).
T1 sequence (Q96EB6 2-747): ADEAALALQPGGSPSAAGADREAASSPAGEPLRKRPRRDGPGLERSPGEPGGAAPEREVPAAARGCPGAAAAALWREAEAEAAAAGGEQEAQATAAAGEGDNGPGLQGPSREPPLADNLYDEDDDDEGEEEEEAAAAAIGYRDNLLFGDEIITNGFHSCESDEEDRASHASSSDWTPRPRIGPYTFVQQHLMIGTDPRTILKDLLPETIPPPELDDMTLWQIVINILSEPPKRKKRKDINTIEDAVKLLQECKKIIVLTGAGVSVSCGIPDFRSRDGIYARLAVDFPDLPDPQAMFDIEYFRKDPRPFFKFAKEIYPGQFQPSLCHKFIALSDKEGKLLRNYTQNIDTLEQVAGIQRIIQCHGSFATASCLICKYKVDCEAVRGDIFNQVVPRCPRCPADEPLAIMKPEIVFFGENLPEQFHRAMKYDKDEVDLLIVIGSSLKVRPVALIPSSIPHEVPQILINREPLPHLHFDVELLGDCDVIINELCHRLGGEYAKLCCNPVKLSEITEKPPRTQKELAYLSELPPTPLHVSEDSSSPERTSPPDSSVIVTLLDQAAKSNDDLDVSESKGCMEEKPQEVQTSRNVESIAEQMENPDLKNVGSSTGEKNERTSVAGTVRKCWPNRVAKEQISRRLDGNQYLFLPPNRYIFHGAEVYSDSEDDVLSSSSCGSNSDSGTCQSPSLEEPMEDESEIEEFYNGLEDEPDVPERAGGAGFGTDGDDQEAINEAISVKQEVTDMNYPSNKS

For experiment [2], the target named is T2, SIRT2 (Homo sapiens, UniProt Q8IXJ6).
T2 sequence (Q8IXJ6 2-389): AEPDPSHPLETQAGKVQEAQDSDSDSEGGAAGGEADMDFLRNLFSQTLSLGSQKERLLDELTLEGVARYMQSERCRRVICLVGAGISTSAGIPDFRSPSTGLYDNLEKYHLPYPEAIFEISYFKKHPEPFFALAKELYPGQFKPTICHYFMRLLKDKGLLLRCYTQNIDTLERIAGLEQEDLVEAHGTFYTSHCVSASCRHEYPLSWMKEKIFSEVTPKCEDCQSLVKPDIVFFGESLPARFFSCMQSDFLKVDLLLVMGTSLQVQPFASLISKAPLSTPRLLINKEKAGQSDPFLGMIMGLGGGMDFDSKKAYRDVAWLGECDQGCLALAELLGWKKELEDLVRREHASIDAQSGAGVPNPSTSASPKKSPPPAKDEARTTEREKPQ

In experiment [3] the target is T1, SIRT1. The source holds these as a separate data set.
In experiment [4] the target is T2, SIRT2. This is another data set of the same source.

A word on the inhibition: it is the percentage by which the read-out fell short of the control. In turn, `O=C(/C=C/C=C/c1ccc2c(c1)OCO2)N/N=C/c1ccc(O)cc1O` [5b, (2E,4E)-5-(Benzo[d][1,3]dioxol-5-yl)-N′-((E)-2,4-dihydroxybenzylidene)penta-2,4-dienehydrazide] displayed an inhibition at 50 µM in experiment [1] of 45 ± 3%.

In experiment [2], `O=C(/C=C/C=C/c1ccc2c(c1)OCO2)NN=Cc1ccc(O)cc1` [5a, (2E,4E)-5-(Benzo[d][1,3]dioxol-5-yl)-N′-((E,Z)-4-hydroxybenzylidene)penta-2,4-dienehydrazide] showed an inhibition at 50 µM of 72 ± 3%.

As for `CN(C)c1ccc(C=NNC(=O)/C=C/C=C/c2ccc3c(c2)OCO3)cc1` (mixture of isomers) [5d, (2E,4E)-5-(Benzo[d][1,3]dioxol-5-yl)-N′-((E/Z)-4-(dimethylamino)-benzylidene)penta-2,4-dienehydrazide], the inhibition at 50 µM in experiment [3] is 48 ± 3%; in experiment [4], 70 ± 3%.
